Laboratory results published in ChEMBL document CHEMBL4422681, “Comprehensive kinetic and substrate specificity analysis of an arylsulfatase from Helix pomatia using mass spectrometry” (Bioorg Med Chem, 2019).
Where a name gives a salt, the structure may show the parent alone.

Legend:
[1] = Drug metabolism in pH 7 ammonium acetate buffer assessed as 7-hydroxy-4-methyl-2H-chromen-2-one formation
arylsulfatase [2] = test: Substrate activity at Helix pomatia arylsulfatase assessed as enzyme-mediated compound hydrolysis using 5 U of enzyme measured after 30 mins by UPLC-MS/MS analysis; format: ADME; conditions: Helix pomatia arylsulfatase (isolated enzyme), read-out: Drug metabolism
arylsulfatase [3] = test: Substrate activity at Helix pomatia arylsulfatase assessed as enzyme-mediated compound hydrolysis by measuring parent compound remaining using 0.1 U of enzyme measured after 30 mins by UPLC-MS/MS analysis; format: ADME; conditions: Helix pomatia arylsulfatase (isolated enzyme), read-out: Stability
[4] = Stability of the compound in pH 7 ammonium acetate buffer by UPLC-MS/MS analysis; format: physicochemical
arylsulfatase [5] = test: Substrate activity at Helix pomatia arylsulfatase assessed as enzyme-mediated compound hydrolysis using 1 U of enzyme measured after 30 mins by UPLC-MS/MS analysis; format: ADME; conditions: Helix pomatia arylsulfatase (isolated enzyme), read-out: Drug metabolism
arylsulfatase [6] = test: Substrate activity at Helix pomatia arylsulfatase assessed as enzyme-mediated compound hydrolysis by measuring Km by UPLC-MS/MS analysis; format: ADME; conditions: Helix pomatia arylsulfatase (isolated enzyme)
[7] = Substrate activity at Helix pomatia arylsulfatase assessed as enzyme-mediated compound hydrolysis by measuring Vmax by UPLC-MS/MS analysis; format: ADME
arylsulfatase [8] = test: Substrate activity at Helix pomatia arylsulfatase assessed as enzyme-mediated compound hydrolysis using 1 U of enzyme measured after 24 hrs by UPLC-MS/MS analysis; format: ADME; conditions: Helix pomatia arylsulfatase (isolated enzyme), read-out: Drug metabolism
[9] = Substrate activity at Helix pomatia arylsulfatase assessed as enzyme-mediated compound hydrolysis by measuring catalytic efficiency by UPLC-MS/MS analysis; format: ADME

Compound	metabolised at 0.5 h (arylsulfatase [2])	remaining at 0.5 h (arylsulfatase [3])	Stability [4]	metabolised at 0.5 h (arylsulfatase [5])	Km (arylsulfatase [6])	Vmax [7]	metabolised at 24 h (arylsulfatase [8])	Activity [9]	Drug metabolism [1]
COc1cc(/C=C/C(=O)O)ccc1OS(=O)(=O)O	–	–	Stable	–	161 µM	0.01 µM/s	100%	862 s⁻¹ µM⁻¹	–
O=S(=O)(O)Oc1cccc(O)c1	–	–	Stable	–	131 µM	0.01 µM/s	100%	696 s⁻¹ µM⁻¹	–
C[C@]12CC[C@@H]3c4ccc(OS(=O)(=O)O)cc4CC[C@H]3[C@@H]1CCC2=O [ESTRONE SULFURIC ACID]	–	–	Stable	100%	351 µM	3.8 µM/s	–	–	–
O=C(O)/C=C/c1ccc(OS(=O)(=O)O)cc1	–	–	Stable	–	262 µM	0.02 µM/s	100%	898 s⁻¹ µM⁻¹	–
CC(=O)NCCc1ccc(OS(=O)(=O)O)cc1	–	–	Stable	–	1490 µM	0.17 µM/s	100%	1210 s⁻¹ µM⁻¹	–
COc1cc(C(=O)O)ccc1OS(=O)(=O)O	–	–	Stable	–	341 µM	0.01 µM/s	100%	351 s⁻¹ µM⁻¹	–
C=Cc1ccc(OS(=O)(=O)O)c(OC)c1	–	–	Stable	100%	–	–	–	–	–
O=S(=O)(O)Oc1c[nH]c2ccccc12 [INDOXYL SULFATE]	–	–	Stable	–	216 µM	0.02 µM/s	100%	1060 s⁻¹ µM⁻¹	–

Continued, in another order:

metabolised at 0.5 h (arylsulfatase [2])	remaining at 0.5 h (arylsulfatase [3])	Stability [4]	metabolised at 0.5 h (arylsulfatase [5])	Km (arylsulfatase [6])	Vmax [7]	metabolised at 24 h (arylsulfatase [8])	Activity [9]	Compound	Drug metabolism [1]
100%	3%	Stable	100%	175 µM	2.66 µM/s	–	–	Cc1cc(=O)oc2cc(OS(=O)(=O)O)ccc12	Metabolite detected
–	–	Stable	100%	112 µM	8.21 µM/s	–	–	COc1ccc2c(c1)c(=O)oc1cc(OS(=O)(=O)O)ccc12	–
–	–	Stable	100%	–	–	–	–	O=[N+]([O-])c1ccc(OS(=O)(=O)O)cc1	–
–	–	Stable	–	1400 µM	0.08 µM/s	100%	623 s⁻¹ µM⁻¹	Cc1ccc(OS(=O)(=O)O)cc1	–
–	–	Stable	–	–	–	100%	–	Cc1c[nH]c2ccc(OS(=O)(=O)O)cc12	–
–	–	Stable	–	1020 µM	0.66 µM/s	100%	7010 s⁻¹ µM⁻¹	CCc1ccc(OS(=O)(=O)O)cc1	–
